Test results reported in US7928090B2, “External preparation composition” (Lion Corporation, priority 2002, dated 2011).

Columns and labels:
[1] = test system: skin roughness in the inside of a forearm of a human being; experiment: Skin roughness-improving test (SDS-induced skin roughness); format: in vivo; conditions: hydrophilic ointment with 0.05%, twice a day, 3 days; conductance relative to ointment with no tested substance = 100
Description: A 10% SDS solution was used to artificially form a skin roughness in the inside of a forearm of a human being, and a hydrophilic ointment blended with 0.05% of various acyl glucosamine derivatives shown in the following Table 5 was applied thereon twice a day.
The skin roughness-improving degree observed 3 days later after application was evaluated using a change in a stratum corneum water content as an index. The stratum corneum water content is measured in terms of a conductance (μS). The improving degree was shown by a relative value, wherein the conductance observed when applying the hydrophilic ointment blended with no acyl glucosamine derivative was set at 100, and the skin roughness-improving rate was calculated according to the following equation (IV). Skin roughness-improving rate (%)=[(conductance observed when applying the ointment blended with the tested substance)/(conductance observed when applying the ointment blended with no tested substance)]×100 (IV)

[2] = test system: pigmentation on the backs of color guinea pigs; experiment: Whitening evaluation (UV-induced pigmentation); format: in vivo; parameters: key: +++: notably improved; ++: improved; +: a little improved; ±: no change; conditions: 0.05% in ethanol/propylene glycol (7:3), 30 μL once a day, five times a week, 4 weeks; visual change in pigmentation
Description: Back body hair of color guinea pigs were shaved by means of a hair clipper and a shaver, and they were irradiated with UV rays once a day, 4 times a week and 8 times in total, whereby 4 parts of pigmentation having an area of about 2.25 cm^2 were formed on the backs of the respective guinea pigs.
Each 30 μL of an ethanol/propylene glycol (7:3) solution containing 0.05% of various acyl glucosamine derivatives shown in the following Table 7 was applied thereon in a frequency of once a day and five times a week over 4 weeks, and a change in the pigmentation was visually evaluated according to four degrees of the following evaluation criteria. The solution containing no acyl glucosamine derivative was used for a comparative example.

[3] = test system: back skin of hairless mice irradiated with UVB; experiment: Coarse texture-improving test; format: in vivo, hairless mice (hos: HR-1); conditions: 0.05% in ethanol/propylene glycol (7:3), 100 μL, 4 weeks; texture intersection points relative to non-irradiated group (control 24)
Description: (§1) Four (4) hairless mice per 1 group (hos: HR-1, 10 weeks of age, female) were irradiated on the back skin once a day with UVB at 40 mJ/cm^2 three times a week over a period of 6 weeks. After finishing irradiation, each 100 μL of an ethanol/propylene glycol (7:3) solution containing 0.05% of various acyl glucosamine derivatives shown in the following Table 4 or an ethanol/propylene glycol (7:3) solution as a control was applied on the mouse back in a frequency of once a day and five times a week over 4 weeks.
After finishing application, a replica agent (brand name SILFLO®; manufactured by UK FLEXICO DEVELOPMENTS LTD.) was used to obtain a replica of a mouse back skin. A replica of a UV-non-irradiated group (4 heads) was obtained as a control in the same manner.
The enlarged photographs of the respective replicas were taken through a macro lens (magnification: four times), and the photographs were used to evaluate “coarsening of the texture”.
The coarseness of the texture was defined by a “number of texture intersection point”, wherein a point in which three or more sulci cutis are joined is counted as one intersection point, and the number of the texture intersection points present in a square of 1 cm×1 cm was counted on the replica photograph.
An average point for the respective groups was calculated, and the texture-improving rate was calculated according to the following equation (III). Texture-improving rate (%)=[(number of texture intersection of applied group)/(number of texture intersection point of non-irradiated group)]×100 (III)

acne patients = experiment: Acne-improvement evaluation; format: in vivo, human; conditions: essence with 0.05%, one month; for Evaluation X (worsened), number of subjects / Evaluation Δ (no change), number of subjects / Evaluation ⊚ (notably improved), number of subjects / Evaluation ◯ (improved), number of subjects: applied on face several times a day; for Acne treating effect: percentage of subjects rated improved or better
Description: Prepared was an essence for acne shown in the following composition example in which 0.05% of various acyl glucosamine derivatives shown in the following Table 6 was blended. An essence which was not blended with an acyl glucosamine derivative was prepared as a control.
Sixty acne patients were picked up as subjects to apply everyday the respective essences on the faces thereof several times a day, and the therapeutic effect against the acnes was visually evaluated a month later according to four degrees of the following evaluation criteria.
In the four degree evaluation described above, improvement (∘) or better effect (⊚) was regarded as “effective for treating acnes”, and the subjects showing a treating effect were shown by a numerical value (percentage).

[4] = test system: back skin of hairless mice irradiated with UVB; experiment: Wrinkle-improving test; format: in vivo, hairless mice (hos: HR-1); conditions: 0.05% in ethanol/propylene glycol (7:3), 100 μL once a day, five times a week, 8 weeks; versus control group
Description: as §1, with “at 50” for “at 40”, “mJ/cm^2 five” for “mJ/cm^2 three”, “of 10” for “of 6”, “Table 3” for “Table 4 or an ethanol/propylene glycol (7:3) solution as a control”, “over 8” for “over 4”
After finishing application for 8 weeks, the degree of wrinkles was visually evaluated according to the following evaluation criteria and calculation equation. A control group applied with the ethanol/propylene glycol (7:3) solution was evaluated as a control in the same manner.
Evaluation Criteria of the Degree of Wrinkles:
Evaluation point 0: a lot of fine striations is present on the back and the flank; fine striations run in a direction from the head to the tail; and the striations appear or disappear with the motion of the mouse.
Evaluation point 1: all fine striations along the spine are not observed; a few shallow and coarse wrinkles run perpendicularly to the head-to-tail direction; and the striations appear or disappear with the motion of the mouse.
The respective bodies were evaluated by an evaluation point of a 0.5 unit to calculate an average point for the respective groups, and the wrinkle-improving rate was calculated for the respective groups according to the following equation (II). Wrinkle-improving rate (%)=[(average value of the control group−average value of a glucosamine derivative-applied group)/(average value of the control group)]×100 (II)

guinea pig skin = experiment: Continuous irritative test of guinea pig skin (Draize method); format: in vivo, guinea pig (Hartley series); conditions: Table 1; 0.5% in ethanol/propylene glycol (7:3), 50 μL once a day, 3 days straight; total of erythema and edema, full marks 8 points
Description: Each left and right two spots (4 spots/head) of applying parts having a frame of 2 cm×2 cm were provided on the back of a shaved guinea pig (Hartley series, 7 weeks of age, female, N=10), and each 50 μL of an ethanol/propylene glycol (7:3) solution containing 0.5% of the respective acyl glucosamine derivatives shown in the following Table 1 was applied once a day on the respective frames.
A skin irritative score after application for 3 days straight was evaluated according to the following evaluation criteria (Draize method). The above irritative score was shown by the total points (full marks: 8 points) of erythema and edema.
Evaluation Criteria of Skin Irritative Score:
3: middle to strong erythema
4: very strong erythema to crust
1: very slight edema formation
2: slight edema formation
3: middle edema formation
4: strong edema formation

Row | SMILES | Skin roughness-improving rate [1] [%] | Whitening-improving effect [2] | Texture-improving rate [3] [%] | Evaluation X (worsened), number of subjects (acne patients) | Evaluation Δ (no change), number of subjects (acne patients) | Evaluation ⊚ (notably improved), number of subjects (acne patients) | Evaluation ◯ (improved), number of subjects (acne patients) | Acne treating effect (acne patients) [%] | Wrinkle-improving rate [4] [%] | Draize score (guinea pig skin) [points]
1 | CC(C=CC1=C(C)CCCC1(C)C)=CC=CC(C)=CC(=O)N[C@H]1C(O)O[C@H](CO)[C@@H](O)[C@@H]1O (single isomer, unassigned) [N-retinoyl-D-glucosamine] | 127 | +++ | 75 | 0 | 0 | 4 | 2 | 100 | 89 | 
2 | CCCCCCCCCCCCCCCCOCCOCCOC(=O)N[C@H]1C(O)O[C@H](CO)[C@@H](O)[C@@H]1O (stereo partly drawn) [N-POE (2) hexadecyletheroxycarbonyl-D-glucosamine] | 139 | ++ | 89 | 0 | 2 | 0 | 3 | 60 | 72 | 0.1
3 | CCCCCCCCCCCCCCCCCCOCCOCCOCCOCCOCCOC(=O)N[C@H]1C(O)O[C@H](CO)[C@@H](O)[C@@H]1O (stereo partly drawn) [N-POE (5) octadecyletheroxycarbonyl-D-glucosamine] | 128 | ++ | 92 | 0 | 3 | 0 | 2 | 40 | 73 | 0.2
4 | CCCCCCCCCCCCCCCCCCCCCCOCCOCCOCCOCCOCCOCCOCCOCCOCCOCCOC(=O)N[C@H]1C(O)O[C@H](CO)[C@@H](O)[C@@H]1O (stereo partly drawn) [N-POE (10) docosyletheroxycarbonyl-D-glucosamine] | 138 | ++ | 88 | 0 | 3 | 0 | 2 | 40 | 82 | 0.1
